From the NIST ThermoML archive (doi:10.1016/j.tca.2012.11.004)
Numbers after ± are expanded uncertainties.

Columns and labels:
[1] = 298.15 K; 101.33 kPa; Liquid; Vibrating tube method
[2] = refractive index (Na D-line) (dimensionless); settings: 101.33 kPa, Liquid, Standard Abbe refractometry

Compound	mass density [1]	refractive index ([2]; 298.1 K)	refractive index ([2]; 298.15 K)
CC(=O)N(C)C [N,N-dimethylethanamide]	936.38 ± 0.08 kg/m3	1.4358 ± 0.0007	–
CNC=O [N-methylformamide]	998.94 ± 0.23 kg/m3	–	1.4302 ± 0.0007
CN(C)C=O [dimethylformamide]	943.9 ± 0.11 kg/m3	–	1.4281 ± 0.0007
NC=O [formamide]	1129.16 ± 0.16 kg/m3	–	1.4465 ± 0.0007
